Assay: Effect of autoclave sterilization on final drug concentration in silicone sleeve
Format: physicochemical
Conditions: rifampin in silicone sleeve, starting concentration about 0.0738 wt %, autoclave about 30 minutes
Description: FIG. 18 illustrates the effect of sterilization on the final drug concentration, showing the degradation rate versus autoclave time, for example, with a starting concentration of about 0.0738 wt % rifampin in the silicone and running the autoclave about 30 minutes will result in a final concentration of about 0.054 wt % rifampin in the silicone sleeve.
The term “weight percent” or “wt %” means the ratio of the drug weight to the weight of the biocompatible matrix, e.g., the silicone after sterilization, for example, an initial concentration of rifampin of about 0.0738 wt % with about a 30 minute autoclave time will result in a final wt % of about 0.054 in the sterilized product. Other than where expressly indicated, all numbers expressing amounts of materials, concentrations, quantified properties of materials, and so forth, stated in the specification and claims are to be understood as being modified in all instances by the term “about” or “approximately”.

CO[C@H]1/C=C/O[C@@]2(C)Oc3c(C)c(O)c4c(O)c(c(/C=N/N5CCN(C)CC5)c(O)c4c3C2=O)NC(=O)/C(C)=C\C=C\[C@H](C)[C@H](O)[C@@H](C)[C@@H](O)[C@@H](C)[C@H](OC(C)=O)[C@@H]1C [rifampin]
final concentration after autoclave sterilization: about 0.054 wt %
